Patent publication US11999715B2, “ASK1 inhibiting agents” (BIOGEN MA INC., priority 2018, dated 2024)

Assays:
[1] = target: T1, ASK1 T838 auto phosphorylation (Homo sapiens, UniProt Q99683); assay: ASK1 (AUTO PHOS T838) assay, MSD format, in HEK-293T cells transfected with ASK1-V5; assay type: cell-based; settings: ASK1 T838 auto phosphorylation in HEK-293T cells, 1 hr compound incubation; class symbols
T1 sequence (Q99683 1-1374): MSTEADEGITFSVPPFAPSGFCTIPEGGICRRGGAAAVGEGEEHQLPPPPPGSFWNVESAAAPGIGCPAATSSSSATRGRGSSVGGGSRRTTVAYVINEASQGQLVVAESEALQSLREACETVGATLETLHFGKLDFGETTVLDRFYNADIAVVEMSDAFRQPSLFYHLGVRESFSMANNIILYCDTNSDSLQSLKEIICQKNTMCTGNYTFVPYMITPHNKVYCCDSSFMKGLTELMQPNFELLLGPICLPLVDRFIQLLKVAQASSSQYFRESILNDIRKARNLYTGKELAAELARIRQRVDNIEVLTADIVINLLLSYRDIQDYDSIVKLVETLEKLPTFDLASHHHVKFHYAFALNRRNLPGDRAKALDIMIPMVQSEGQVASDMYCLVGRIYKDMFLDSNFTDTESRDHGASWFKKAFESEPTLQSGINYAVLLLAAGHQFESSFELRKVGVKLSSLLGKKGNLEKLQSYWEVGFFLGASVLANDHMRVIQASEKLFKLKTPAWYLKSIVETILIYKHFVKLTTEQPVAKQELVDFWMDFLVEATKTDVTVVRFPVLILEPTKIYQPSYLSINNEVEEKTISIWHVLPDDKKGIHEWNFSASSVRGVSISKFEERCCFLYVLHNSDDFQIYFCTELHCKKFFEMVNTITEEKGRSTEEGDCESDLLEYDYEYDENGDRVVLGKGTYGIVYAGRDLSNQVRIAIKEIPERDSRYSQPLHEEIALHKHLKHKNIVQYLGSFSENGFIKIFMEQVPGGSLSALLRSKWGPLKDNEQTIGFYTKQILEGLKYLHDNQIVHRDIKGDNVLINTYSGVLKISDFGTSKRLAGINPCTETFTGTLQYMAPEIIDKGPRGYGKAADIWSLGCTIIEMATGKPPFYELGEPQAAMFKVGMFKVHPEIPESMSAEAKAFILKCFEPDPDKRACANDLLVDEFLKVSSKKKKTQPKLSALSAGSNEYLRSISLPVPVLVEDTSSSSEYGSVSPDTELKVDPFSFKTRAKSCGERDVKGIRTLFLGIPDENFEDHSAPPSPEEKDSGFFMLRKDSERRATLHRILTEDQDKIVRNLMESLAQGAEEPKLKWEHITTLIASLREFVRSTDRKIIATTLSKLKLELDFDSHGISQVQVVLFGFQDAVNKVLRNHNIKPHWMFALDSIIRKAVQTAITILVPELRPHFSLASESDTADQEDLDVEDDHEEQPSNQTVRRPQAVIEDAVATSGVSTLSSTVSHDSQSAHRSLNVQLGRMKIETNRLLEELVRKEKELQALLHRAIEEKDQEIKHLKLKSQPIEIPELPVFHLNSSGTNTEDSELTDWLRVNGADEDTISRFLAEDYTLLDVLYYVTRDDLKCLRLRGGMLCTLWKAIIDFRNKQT
Procedure: Example 112: Brief Description of ASK1(AUTO PHOS T838) Assay ASK1 T838 auto phosphorylation was measured in HEK-293T cells using MSD assay format. HEK 293T cells were seeded in 15 cm plates at a density of 18 million cells and 20 mL DMEM with 10% FBS, Pen/Strep media. The plates were incubated at 37° C. overnight. Media on plates was changed to OPTI-MEM, serum free media and cells were transfected with 9 μg of ASK1-V5 tagged full length plasmid using Lipofectamine 2000 (Invitrogen) and the plates were incubated at 37° C. overnight. Cells were trypsinized, counted on Nexcellometer and plated into 96 well tissue culture plates with 100,000 cells/well and 200 μL media. Cells were incubated for 4 hr at 37° C. then ASK1 compounds were added using a HP 300e. Compounds were tested at 20 μM with 3 fold, 10 point dilution points then incubated for 1 hr at 37° C. A lysis buffer (Cell Signaling) was prepared with protease and phosphatase inhibitor and maintained at 4° C. until use. Media from cells was discarded and 120 μL of cold lysis buffer was added to the cells, the plate was shaken 4° C. for 1 hr. Lysate was mixed using Apricot liquid handler; aspirating up and down 16 times at high speed using 50 μL volume. […] Plates were then incubated on a plate shaker overnight at 4° C. Plates were washed 3× with MSD wash buffer and 50 μL of rabbit anti-pASK1 T838 antibody was added to the wells and incubated for 2 hr at room temperature on a plate shaker. Plates were then washed and 50 μL of goat anti-rabbit sulfa-tag (1:500 dilution) was added to wells, and incubated for 1 hr at room temperature on a plate shaker. […] Plates were immediately read on a MSD Instrument Reader where chemoluminescence signal was measured. Data was analyzed using Graph Pad or Genedata, the data was normalized and plotted, % activity versus log of compound concentration. The IC50 values were obtained from a 4 parameter fit. The compounds described herein were tested for in the above cell-based assay.

ASK1/MAP3K5 = target: T2, ASK1/MAP3K5 (Homo sapiens, UniProt Q99683); assay: ASK1/MAP3K5 kinase assay by Reaction Biology Corp. (headed ASK1 TR-FRET Assay); assay type: biochemical; settings: 20 μM myelin basic protein, 10 μM ATP, class symbols
T2 sequence (Q99683 1-1374): T1 sequence (Q99683 1-1374)
Procedure: Example 111: Brief Description of ASK1 TR-FRET Assay The protein kinase inhibitory activity of the compounds described herein were tested using the ASK1/MAP3K5 assay by Reaction Biology Corp. (Malvern, PA). The assay procedure follows (and is also available on the Reaction Biology Corp. website). Base Reaction Buffer: 20 mM Hepes (pH 7.5), 10 mM MgCl2, 1 mM EGTA, 0.02% Brij35, 0.02 mg/mL BSA, 0.1 mM Na3VO4, 2 mM DTT, 1% DMSO; Substrate: 20 μM of myelin basic protein (MBP) and 10 μM ATP; Protein kinase: ASK1/MAP3K5. Reaction Procedure: • 1. Prepare indicated substrate in freshly prepared Base Reaction Buffer. • 2. Deliver any required cofactors to the substrate solution. • 3. Deliver indicated kinase into the substrate solution and gently mix. • 4. Deliver compounds in DMSO into the kinase reaction mixture by Acoustic; technology (Echo550; nanoliter range), incubate for 20 minutes at room temperature. • 5. Deliver ^33P-ATP (specific activity 10 μCi/μL) into the reaction mixture to initiate the reaction. • 6. Incubate kinase reaction for 2 hours at room temperature. • 7. Reactions are spotted onto P81 ion exchange paper. • 8. Detect kinase activity by filter-binding method.

IC50 [1]	IC50 (ASK1/MAP3K5)	Structure (SMILES)
1000 to 10000 nM	≤ 100 nM	COc1nn(C)cc1C(=O)Nc1cccc(-c2nncn2C(C)CO)n1 (racemic) [Example 35, rac-N-(6-(4-(1-Hydroxypropan-2-yl)-4H-1,2,4-triazol-3-yl)pyridin-2-yl)-3-methoxy-1-methyl-1H-pyrazole-4-carboxamide]
≤ 1000 nM	≤ 100 nM	COc1nn(C)cc1C(=O)Nc1cccc(-c2nncn2[C@@H](C)C(F)F)n1 (single isomer, unassigned) [Example 27]
≤ 1000 nM	≤ 100 nM	COc1nn(C)cc1C(=O)Nc1cccc(-c2nncn2[C@H](C)C(F)F)n1 (single isomer, unassigned) [Example 28]
≤ 1000 nM	≤ 100 nM	COc1nn(C)cc1C(=O)Nc1cccc(-c2nncn2[C@H]2CCC2(F)F)n1 (single isomer, unassigned) [Example 31]
≤ 1000 nM	100 to 1000 nM	COc1nn(C)cc1C(=O)Nc1cccc(-c2nncn2[C@@H]2CCC2(F)F)n1 (single isomer, unassigned) [Example 32]
≤ 1000 nM	≤ 100 nM	COC[C@H](C)n1cnnc1-c1cccc(NC(=O)c2cn(C)nc2OC)n1 (single isomer, unassigned) [Example 33]
≤ 1000 nM	100 to 1000 nM	COC[C@@H](C)n1cnnc1-c1cccc(NC(=O)c2cn(C)nc2OC)n1 (single isomer, unassigned) [Example 34]
≤ 1000 nM	≤ 100 nM	COc1nn(C)cc1C(=O)Nc1cccc(-c2nncn2[C@H](C)CO)n1 (single isomer, unassigned) [Example 36]
1000 to 10000 nM	≤ 100 nM	COc1nn(C)cc1C(=O)Nc1cccc(-c2nncn2[C@@H](C)CO)n1 (single isomer, unassigned) [Example 37]
1000 to 10000 nM	100 to 1000 nM	COc1nn(C)cc1C(=O)Nc1cccc(-c2nncn2[C@H]2CCN(C(=O)OC(C)(C)C)C2)n1 (single isomer, unassigned) [Example 40]
≤ 1000 nM	≤ 100 nM	COc1nn(C)cc1C(=O)Nc1cccc(-c2nncn2[C@@H]2CCOC2)n1 (single isomer, unassigned) [Example 109]
≤ 1000 nM	≤ 100 nM	COc1nn(C)cc1C(=O)Nc1cccc(-c2nncn2[C@H]2CCOC2)n1 (single isomer, unassigned) [Example 110]
≤ 1000 nM	≤ 100 nM	CCOc1nn(C)cc1C(=O)Nc1cccc(-c2nncn2C(C)C)n1 [Example 3, 3-Ethoxy-N-(6-(4-isopropyl-4H-1,2,4-triazol-3-yl)pyridin-2-yl)-1-methyl-1H-pyrazole-4-carboxamide]
1000 to 10000 nM	100 to 1000 nM	COCc1nn(C)cc1C(=O)Nc1cccc(-c2nncn2C(C)C)n1 [Example 4, N-(6-(4-Isopropyl-4H-1,2,4-triazol-3-yl)pyridin-2-yl)-3-(methoxymethyl)-1-methyl-1H-pyrazole-4-carboxamide]
1000 to 10000 nM	100 to 1000 nM	CC(C)n1cnnc1-c1cccc(NC(=O)c2cn(C)nc2C(F)(F)F)n1 [Example 5, N-(6-(4-Isopropyl-4H-1,2,4-triazol-3-yl)pyridin-2-yl)-1-methyl-3-(trifluoromethyl)-1H-pyrazole-4-carboxamide]
≤ 1000 nM	100 to 1000 nM	CC(C)n1cnnc1-c1cccc(NC(=O)c2cn(C)nc2C(F)F)n1 [Example 6, 3-(Difluoromethyl)-N-(6-(4-isopropyl-4H-1,2,4-triazol-3-yl)pyridin-2-yl)-1-methyl-1H-pyrazole-4-carboxamide]
≤ 1000 nM	≤ 100 nM	COc1nn(Cc2ccccc2)cc1C(=O)Nc1cccc(-c2nncn2C(C)C)n1 [Example 8, 1-Benzyl-N-(6-(4-isopropyl-4H-1,2,4-triazol-3-yl)pyridin-2-yl)-3-methoxy-1H-pyrazole-4-carboxamide]
≤ 1000 nM	100 to 1000 nM	CC(C)n1cnnc1-c1cccc(NC(=O)c2cnn(C(C)(C)C)c2)n1 [Example 9, 1-(tert-Butyl)-N-(6-(4-isopropyl-4H-1,2,4-triazol-3-yl)pyridin-2-yl)-1H-pyrazole-4-carboxamide]
≤ 1000 nM		COc1nn(C)cc1C(=O)Nc1cccc(-c2nncn2C(C)C(F)(F)F)n1 (stereo not drawn) [Example 10, 3-Methoxy-1-methyl-N-(6-(4-(1,1,1-trifluoropropan-2-yl)-4H-1,2,4-triazol-3-yl)pyridin-2-yl)-1H-pyrazole-4-carboxamide]
≤ 1000 nM	100 to 1000 nM	COc1nn(C)cc1C(=O)Nc1cccc(-c2nncn2[C@H](C)C(F)(F)F)n1 [Example 11, (R)-3-Methoxy-1-methyl-N-(6-(4-(1,1,1-trifluoropropan-2-yl)-4H-1,2,4-triazol-3-yl)pyridin-2-yl)-1H-pyrazole-4-carboxamide]
≤ 1000 nM		CCCn1cc(C(=O)Nc2cccc(-c3nncn3C(C)C)n2)c(OC)n1 [Example 58, N-(6-(4-Isopropyl-4H-1,2,4-triazol-3-yl)pyridin-2-yl)-3-methoxy-1-propyl-1H-pyrazole-4-carboxamide]
≤ 1000 nM		COc1nn(-c2ccccc2)cc1C(=O)Nc1cccc(-c2nncn2C(C)C)n1 [Example 60, N-(6-(4-Isopropyl-4H-1,2,4-triazol-3-yl)pyridin-2-yl)-3-methoxy-1-phenyl-1H-pyrazole-4-carboxamide]
≤ 1000 nM		COc1nn(CC2CC2)cc1C(=O)Nc1cccc(-c2cncn2C(C)C)n1 [Example 91, 1-(Cyclopropylmethyl)-N-(6-(1-isopropyl-1H-imidazol-5-yl)pyridin-2-yl)-3-methoxy-1H-pyrazole-4-carboxamide]
